Where “and” joins values, the source holds several entries; their conditions need not be identical. Equal entries are not always repeated. Where two headings read alike, the source gives them in different places.
Key:
[1] = system: S. mansoni newly transformed schistosoma (NTS); assay: ATP-based luminescence (CellTiter-GLO) viability assay on NTS; type: cell-based
Experimental: (§1) Fig 3 Schistosome viability assays. Panel A: Representative dose-response curves of the inhibitors on NTS. The y-axis indicates the percentage of viability normalized against DMSO (100%) and gambogic acid 10 μM (0%). […] Panel B: dose-response curve of the inhibitors on adult schistosome worm pairs. DMSO (vehicle) was used as negative control (100% viability), the indicated compounds were assayed at 5 (full triangle) 10 (inverted full triangle), 20 (full square) and 50 μM (full circle). Data are expressed as a % severity score (viability) relative to DMSO. Each point represents the average ± standard deviation of three independent experiments.

[2] = system: adult S. mansoni worm pairs; assay: Viability assay on adult worm pairs (phenotype scoring 0-3); type: cell-based, Schistosoma mansoni; conditions: for viability at 20 µM / viability at 50 µM: Schistosoma mansoni
Experimental: For studies on adult worm pairs, mice infected 7–8 weeks previously with double sex cercariae were euthanized with intraperitoneal injections of Tiletamine/Zolazepam ([…]) + Xylazine (100 mg/kg) and adult parasites were harvested by reversed perfusion of the hepatic portal system and mesenteric veins. Adult worms were cultured in DMEM containing phenol red and with 4500 mg/l glucose, 2 mM L-glutamine, 100 U/ml penicillin, 100 μg/ml streptomycin, 1x antibiotic-antimycotic reagent, and 10% heat inactivated FBS. Viability assays on adult worm pairs were based on a phenotyping scoring assessment as previously described. Briefly, five adult pairs were incubated with selected compounds in 3 ml of DMEM complete medium. For each compound, three experiments were performed, and compounds were given to parasites only once without medium addition and/or replacement. DMSO (vehicle)-treated worms were used as control samples. Viability was monitored under a Leica Model MZ12 stereomicroscope for 7 days and viability scores (0–3) were assigned. […] For each sample, the total score was determined by the ratio of the sum of worm scores for the total number of worms.
as §1
Parasites were treated initially at 20 μM and 50 μM; their impact on viability was monitored for 7 days upon treatment. […] Viability of each schistosome was scored from 3 (no effect) to 0 (severe effects) by assigning daily worm phenotype scores (plate attachment, movement, color, gut peristalsis, tegument damage) as previously described (Fig 3B).

[3] = MTT cytotoxicity assay on L929 fibroblasts; type: cell-based, murine; conditions: mouse, L929 (NCTC clone 929) fibroblast cells, compounds 100-0.78 μM, GA 10-0.078 μM, 2 independent experiments
Experimental: The NCTC clone 929 (L-929) murine fibroblast isolated from subcutaneous connective tissue (ATCC-CCL-1) were cultured in Dulbecco’s Modified Eagle Medium (DMEM) supplemented with 10 mM Hepes (pH 6.98–7.30), 1 mM l-glutamine, 100 U/ml of penicillin/streptomycin (BioWhittaker, Lonza, EuroClone SpA), and heat-inactivated 10% FBS. All cells were cultured at 37°C in a 5% CO2 humidified incubator.
The MTT method was employed as previously described to determine the viability of fibroblast cell lines. Briefly, cells seeded into 96-well plates at a density of 20,000 cells/well after overnight incubation, were exposed to selected compounds at the indicated concentrations for 24–72 h. Next they were gently washed, incubated with MTT (bromuro di 3-(4,5-dimetiltiazol-2-il)-2,5-diphenyltetrazolium) for 4 h, and processed for color detection with DMSO. The resulting purple solution was spectrophotometrically measured at 570 nm using a Varioskan Lux instrument and Skanit software (Thermo Fisher Scientific).
The optical density values for both assays were expressed as a percentage of cell survival and normalized with the value of cells treated with vehicle (DMSO), and the data were analyzed using GraphPad Prism v9.5.1 software (San Diego, CA, USA).
The cytotoxicity of the hit compounds was assessed in two independent experiments on murine L929 and human BJ fibroblasts at 24 h by MTT assays. Vehicle (DMSO) and Gambogic acid (GA) were used as negative and positive control respectively. The compounds show a safe profile on both cell lines (S2 Table).
The IC50(μM) shown was calculated by dose-response curves of the compounds on murine L929 and human BJ fibroblast cells. […] The data are representative of 2 independent experiments. Gambogic acid (GA) and vehicle (DMSO) were used as positive and negative controls respectively. (DOCX)

[4] = system: HERG K+ channels; design: method as in earlier work; conditions: QikProp, log value; recommended below -5; ref [25]; cited from earlier work
[5] = 24 h, 20 µM, day 1, read-out: % viability of adult worm pairs relative to DMSO, Mean
[6] = 24 h, 20 µM, day 1, read-out: % viability of adult worm pairs relative to DMSO, single experiments
[7] = 24 h, 50 µM, day 1, read-out: % viability of adult worm pairs relative to DMSO, Mean
[8] = 72 h, 20 µM, day 3, read-out: % viability of adult worm pairs relative to DMSO, Mean
[9] = 72 h, 20 µM, day 3, read-out: % viability of adult worm pairs relative to DMSO, single experiments
[10] = 72 h, 50 µM, day 3, read-out: % viability of adult worm pairs relative to DMSO, Mean
[11] = 120 h, 20 µM, day 5, read-out: % viability of adult worm pairs relative to DMSO, Mean
[12] = 120 h, 20 µM, day 5, read-out: % viability of adult worm pairs relative to DMSO, single experiments
[13] = 120 h, 50 µM, day 5, read-out: % viability of adult worm pairs relative to DMSO, Mean
[14] = 168 h, 20 µM, day 7, read-out: % viability of adult worm pairs relative to DMSO, Mean
[15] = 168 h, 20 µM, day 7, read-out: % viability of adult worm pairs relative to DMSO, single experiments
[16] = 168 h, 50 µM, day 7, read-out: % viability of adult worm pairs relative to DMSO, Mean

| SMILES | % viability of adult worm pairs relative to DMSO, single experiments ([2]; 20 µM, day 1, 20 µM) | % viability of adult worm pairs relative to DMSO, single experiments ([2]; 20 µM, day 3, 20 µM) | % viability of adult worm pairs relative to DMSO, single experiments ([2]; 20 µM, day 5, 20 µM) | % viability of adult worm pairs relative to DMSO, single experiments ([2]; 20 µM, day 7, 20 µM) | % viability of adult worm pairs relative to DMSO, single experiments ([2]; 50 µM, day 3, 50 µM) | viability at 20 µM [2, 5] [%] | viability at 20 µM [2, 6] [%] | viability at 50 µM [2, 7] [%] | viability at 20 µM [2, 8] [%] | viability at 20 µM [2, 9] [%] | viability at 50 µM [2, 10] [%] | viability at 20 µM [2, 11] [%] | viability at 20 µM [2, 12] [%] | viability at 50 µM [2, 13] [%] | viability at 20 µM [2, 14] [%] | viability at 20 µM [2, 15] [%] | viability at 50 µM [2, 16] [%] | IC50 at 24 h [3] [µM] | QPlogHERG predicted IC50 values for blockage of HERG K+ channels [4] | further results |
| --- | --- | --- | --- | --- | --- | --- | --- | --- | --- | --- | --- | --- | --- | --- | --- | --- | --- | --- | --- | --- |
| CCN(CC)Cc1ccc(Cn2c(=O)c(OCc3ccc(C(=O)NO)cc3)c(-c3cccnc3)c3ccccc32)cc1 [NF2838] | 93.3% and 96% | 86.6% and 96% | 90% and 100% | 85% and 100% | 67% and 70% | 96.4 | 100 | 67.5 | 94.2 | 100 | 58.5 | 96.7 | 100 | 50 | 95 | 100 | 58.5 | 64 to 100 | -7.83 | Normalization: NTS viability normalized against DMSO (100%) and GA (0%) ([1]; log conc. (µM) 1.4, 72 h, single wells): 107.9%; % viability of adult worm pairs relative to DMSO, single experiments ([2]; 50 µM, day 1, 50 µM): 62% and 73%; % viability of adult worm pairs relative to DMSO, single experiments ([2]; 50 µM, day 7, 50 µM): 67%; viability at 50 µM ([2]; 72 h, 50 µM, day 3, read-out: % viability of adult worm pairs relative to DMSO, single experiments): 50%; viability at 50 µM ([2]; 168 h, 50 µM, day 7, read-out: % viability of adult worm pairs relative to DMSO, single experiments): 50% |
| Cn1c(=O)c(OCc2ccc(C(=O)NO)cc2)c(C2CCCCC2)c2ccccc21 [NF2836] | 100% | 100% and 96% | 100% and 96% | 100% | 80% and 60% and 92.59% and 77% | 94.3 | 83 | 62.1 | 98.7 | 100 | 77.4 | 98.7 | 100 | 53.9 | 94.3 | 100 | 53.2 | > 100 | -5.45 | LD50 on NTS, average +/- SD ([1]; 72 h, 0.7-100 μM, three experiments): 31.2 ± 11.3 µM; % viability of adult worm pairs relative to DMSO, single experiments ([2]; 50 µM, day 5, 50 µM): 63% and 43% and 42.59% and 67% |
